Key:
[1] = target: 5-hydroxytryptamine receptor 2A (Rattus norvegicus, UniProt P14842); assay: Displacement of [3H]-ketanserin from 5HT2A receptor in Wistar rat cortical membrane after 15 mins by liquid scintillation counting; format: cell membranes
[2] = target: T1, 5-hydroxytryptamine receptor 1A (Rattus norvegicus, UniProt P19327); assay: Displacement of [3H]-OH-8-DPAT from 5HT1A receptor in Wistar rat hippocampal membrane after 15 mins by liquid scintillation counting; format: cell membranes, Hippocampus
T1 sequence (P19327 whole entry): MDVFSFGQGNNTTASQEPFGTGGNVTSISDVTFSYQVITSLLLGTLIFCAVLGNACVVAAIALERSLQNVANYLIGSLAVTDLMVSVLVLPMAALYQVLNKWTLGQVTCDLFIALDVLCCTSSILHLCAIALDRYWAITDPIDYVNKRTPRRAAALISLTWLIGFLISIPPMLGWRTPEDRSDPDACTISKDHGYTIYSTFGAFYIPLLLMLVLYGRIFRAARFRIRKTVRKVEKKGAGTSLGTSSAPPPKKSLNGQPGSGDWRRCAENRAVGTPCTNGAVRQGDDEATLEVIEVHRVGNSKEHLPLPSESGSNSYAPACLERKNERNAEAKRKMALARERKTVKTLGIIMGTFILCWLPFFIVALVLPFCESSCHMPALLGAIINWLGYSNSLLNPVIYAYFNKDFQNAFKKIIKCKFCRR

D(2) dopamine receptor = D(2) dopamine receptor (Rattus norvegicus, UniProt P61169); assay: Displacement of [3H]-YM-09151-2 from D2 dopamine receptor in Wistar rat brain striatal membrane after 60 mins by liquid scintillation counting; format: cell membranes, Striatum
[3] = target: T2, 5-hydroxytryptamine receptor 2C (Homo sapiens, UniProt P28335); assay: Displacement of [3H]-mesulergine from human 5HT2C receptor after 60 mins by liquid scintillation counting
T2 sequence (P28335 whole entry): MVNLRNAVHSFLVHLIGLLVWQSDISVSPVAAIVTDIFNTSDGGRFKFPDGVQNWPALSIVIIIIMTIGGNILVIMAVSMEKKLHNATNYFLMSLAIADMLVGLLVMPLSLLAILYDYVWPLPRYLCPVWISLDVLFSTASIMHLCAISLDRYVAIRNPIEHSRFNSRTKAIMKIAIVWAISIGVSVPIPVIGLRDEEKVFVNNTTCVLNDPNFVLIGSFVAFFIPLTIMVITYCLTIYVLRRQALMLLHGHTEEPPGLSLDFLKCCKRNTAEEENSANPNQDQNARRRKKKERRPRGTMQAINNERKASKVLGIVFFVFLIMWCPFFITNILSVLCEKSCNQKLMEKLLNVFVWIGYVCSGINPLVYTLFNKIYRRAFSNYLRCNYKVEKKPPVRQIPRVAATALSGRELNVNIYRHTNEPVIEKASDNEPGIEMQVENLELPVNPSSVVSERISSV

[4] = target: T3, Alpha-1B adrenergic receptor (Rattus norvegicus, UniProt P15823); assay: Displacement of [3H]-prazosin from alpha1B adrenergic receptor in Wistar rat liver membrane after 45 mins by liquid scintillation counting; format: cell membranes
T3 sequence (P15823 whole entry): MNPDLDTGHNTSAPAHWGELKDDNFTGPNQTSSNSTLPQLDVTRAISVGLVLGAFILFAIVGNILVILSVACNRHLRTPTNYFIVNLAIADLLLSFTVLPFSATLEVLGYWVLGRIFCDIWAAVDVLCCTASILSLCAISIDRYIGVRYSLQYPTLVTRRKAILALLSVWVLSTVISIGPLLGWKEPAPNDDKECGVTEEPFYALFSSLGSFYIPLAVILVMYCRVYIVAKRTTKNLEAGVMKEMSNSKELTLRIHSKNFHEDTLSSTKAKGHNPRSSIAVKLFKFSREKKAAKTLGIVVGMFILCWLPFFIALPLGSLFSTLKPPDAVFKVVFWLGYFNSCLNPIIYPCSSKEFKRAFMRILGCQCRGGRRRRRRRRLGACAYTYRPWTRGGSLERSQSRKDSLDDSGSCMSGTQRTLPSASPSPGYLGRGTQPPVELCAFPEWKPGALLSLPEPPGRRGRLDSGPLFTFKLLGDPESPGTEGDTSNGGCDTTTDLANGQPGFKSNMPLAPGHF

[5] = target: T4, Alpha-2A adrenergic receptor (Rattus norvegicus, UniProt P22909); assay: Displacement of [3H]-RX821002 from alpha2A adrenergic receptor in Wistar rat cortical membrane after 45 mins by liquid scintillation counting; format: cell membranes
T4 sequence (P22909 whole entry): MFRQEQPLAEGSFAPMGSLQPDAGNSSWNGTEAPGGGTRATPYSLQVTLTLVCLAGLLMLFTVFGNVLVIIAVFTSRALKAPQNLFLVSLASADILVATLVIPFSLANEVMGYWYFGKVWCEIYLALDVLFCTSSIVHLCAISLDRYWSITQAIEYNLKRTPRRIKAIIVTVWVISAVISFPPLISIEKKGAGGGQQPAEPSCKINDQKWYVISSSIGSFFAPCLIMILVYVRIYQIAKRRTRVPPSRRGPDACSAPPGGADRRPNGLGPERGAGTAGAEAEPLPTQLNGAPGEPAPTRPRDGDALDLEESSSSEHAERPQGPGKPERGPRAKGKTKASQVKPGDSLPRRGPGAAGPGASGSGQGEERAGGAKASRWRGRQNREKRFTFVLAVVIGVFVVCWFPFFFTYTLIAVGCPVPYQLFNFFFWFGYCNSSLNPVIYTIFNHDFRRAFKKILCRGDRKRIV

[6] = target: Muscarinic acetylcholine receptor; assay: Displacement of [3H]-QNB from muscarinic receptor in Wistar rat brain membrane after 60 mins by liquid scintillation counting; format: cell membranes
D(4) dopamine receptor = target: T5, D(4) dopamine receptor (Homo sapiens, UniProt P21917); assay: Displacement of [3H]-YM-09151-2 from human D4 dopamine receptor after 120 mins by liquid scintillation counting
T5 sequence (P21917 whole entry): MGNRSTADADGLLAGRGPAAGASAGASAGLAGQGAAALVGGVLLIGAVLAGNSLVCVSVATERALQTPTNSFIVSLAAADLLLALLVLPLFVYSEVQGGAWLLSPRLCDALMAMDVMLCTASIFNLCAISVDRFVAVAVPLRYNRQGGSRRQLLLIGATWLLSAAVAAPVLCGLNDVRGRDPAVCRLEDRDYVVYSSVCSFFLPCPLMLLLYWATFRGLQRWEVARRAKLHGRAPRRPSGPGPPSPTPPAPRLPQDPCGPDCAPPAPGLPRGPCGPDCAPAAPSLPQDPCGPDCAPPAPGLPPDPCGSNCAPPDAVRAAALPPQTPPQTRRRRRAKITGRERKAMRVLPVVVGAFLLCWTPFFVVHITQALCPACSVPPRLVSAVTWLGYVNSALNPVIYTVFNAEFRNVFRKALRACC

Plasma = assay: Drug metabolism in Wistar rat plasma assessed as p-hydroxylated metabolite level at 50 mg/kg, ip after 24 hrs; format: ADME, organism-based; parameters: dose 50 mg/kg, route intraperitoneal; details: in vivo

D(2) dopamine receptor, sequence (P61169 whole entry): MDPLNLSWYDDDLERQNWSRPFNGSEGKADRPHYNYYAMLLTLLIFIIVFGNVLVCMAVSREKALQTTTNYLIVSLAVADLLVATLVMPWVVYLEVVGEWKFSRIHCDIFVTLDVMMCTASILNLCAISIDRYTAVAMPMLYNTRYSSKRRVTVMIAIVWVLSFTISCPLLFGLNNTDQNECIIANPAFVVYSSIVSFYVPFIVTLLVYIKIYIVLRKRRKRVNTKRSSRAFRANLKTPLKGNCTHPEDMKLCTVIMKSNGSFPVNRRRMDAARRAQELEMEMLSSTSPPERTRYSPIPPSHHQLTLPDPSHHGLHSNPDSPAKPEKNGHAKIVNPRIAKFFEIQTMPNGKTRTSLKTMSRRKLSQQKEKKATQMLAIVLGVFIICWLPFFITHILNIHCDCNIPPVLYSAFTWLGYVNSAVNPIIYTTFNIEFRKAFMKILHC
5-hydroxytryptamine receptor 2A, sequence (P14842 whole entry): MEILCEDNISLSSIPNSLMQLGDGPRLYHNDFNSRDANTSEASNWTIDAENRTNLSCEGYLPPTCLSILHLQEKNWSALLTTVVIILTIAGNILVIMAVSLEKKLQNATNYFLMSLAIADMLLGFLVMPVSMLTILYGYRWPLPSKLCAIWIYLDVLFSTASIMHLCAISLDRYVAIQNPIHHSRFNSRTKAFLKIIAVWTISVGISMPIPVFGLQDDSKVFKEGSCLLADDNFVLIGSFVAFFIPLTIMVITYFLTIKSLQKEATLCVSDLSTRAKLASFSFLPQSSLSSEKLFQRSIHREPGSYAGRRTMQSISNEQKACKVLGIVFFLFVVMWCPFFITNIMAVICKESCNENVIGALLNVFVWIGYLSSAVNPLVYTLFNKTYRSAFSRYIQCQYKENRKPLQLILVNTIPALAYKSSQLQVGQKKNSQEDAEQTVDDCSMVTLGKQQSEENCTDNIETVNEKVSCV

| SMILES | Ki [1] [µM] | Ki [2] [µM] | Ki (D(2) dopamine receptor) [µM] | Ki [3] [µM] | Ki [4] [µM] | Ki [5] [µM] | Ki [6] [µM] | Ki (D(4) dopamine receptor) [µM] | Drug metabolism (Plasma) |
| --- | --- | --- | --- | --- | --- | --- | --- | --- | --- |
| Oc1ccc(N2CCN(Cc3cnn(-c4ccc(Cl)cc4)c3)CC2)cc1 | 8.22 | 5.87 | 0.53 | 12.3 | 1.15 | 6.45 | > 30 | 0.034 |  |
| Clc1ccc(-n2cc(CN3CCN(c4ccccc4)CC3)cn2)cc1 | 6.82 | 0.21 | 0.38 | 8.44 | 3 | 2.49 | > 30 | 0.17 | Active |
